Laboratory results from ChEMBL document CHEMBL1909046, “DrugMatrix in vitro pharmacology data”.

Tests used:
[1] = biological target: Beta-3 adrenergic receptor (Homo sapiens, UniProt P13945); assay: DRUGMATRIX: Adrenergic beta3 radioligand binding (ligand: [125I] Cyanopindolol); type: cell membranes, HEK293, Membrane; conditions: hek293; Not Active = under 50% inhibition at 10 µM
[2] = biological target: Melanocortin receptor 4 (Homo sapiens, UniProt P32245); type: cell membranes, HEK293, Membrane; conditions: hek293; further: in other assays of this panel Not Active means under 50% inhibition at 10 µM
[3] = biological target: C-C chemokine receptor type 2 (Homo sapiens, UniProt P41597); type: cell membranes, Membrane; conditions: cho-k1; further: in other assays of this panel Not Active means under 50% inhibition at 10 µM
[4] = biological target: Cytochrome P450 2C9 (Homo sapiens, UniProt P11712); conditions: bti-tn-5b1-4; further: in other assays of this panel Not Active means under 50% inhibition at 10 µM
[5] = biological target: T1, Nitric oxide synthase, inducible (Mus musculus, UniProt P29477); set-up: species or system Escherichia coli;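 further: inhibition of iNOS enzyme activity measured with L-arginine as substrate; in other assays of this panel Not Active means under 50% inhibition at 10 µM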
T1 sequence (P29477 whole entry): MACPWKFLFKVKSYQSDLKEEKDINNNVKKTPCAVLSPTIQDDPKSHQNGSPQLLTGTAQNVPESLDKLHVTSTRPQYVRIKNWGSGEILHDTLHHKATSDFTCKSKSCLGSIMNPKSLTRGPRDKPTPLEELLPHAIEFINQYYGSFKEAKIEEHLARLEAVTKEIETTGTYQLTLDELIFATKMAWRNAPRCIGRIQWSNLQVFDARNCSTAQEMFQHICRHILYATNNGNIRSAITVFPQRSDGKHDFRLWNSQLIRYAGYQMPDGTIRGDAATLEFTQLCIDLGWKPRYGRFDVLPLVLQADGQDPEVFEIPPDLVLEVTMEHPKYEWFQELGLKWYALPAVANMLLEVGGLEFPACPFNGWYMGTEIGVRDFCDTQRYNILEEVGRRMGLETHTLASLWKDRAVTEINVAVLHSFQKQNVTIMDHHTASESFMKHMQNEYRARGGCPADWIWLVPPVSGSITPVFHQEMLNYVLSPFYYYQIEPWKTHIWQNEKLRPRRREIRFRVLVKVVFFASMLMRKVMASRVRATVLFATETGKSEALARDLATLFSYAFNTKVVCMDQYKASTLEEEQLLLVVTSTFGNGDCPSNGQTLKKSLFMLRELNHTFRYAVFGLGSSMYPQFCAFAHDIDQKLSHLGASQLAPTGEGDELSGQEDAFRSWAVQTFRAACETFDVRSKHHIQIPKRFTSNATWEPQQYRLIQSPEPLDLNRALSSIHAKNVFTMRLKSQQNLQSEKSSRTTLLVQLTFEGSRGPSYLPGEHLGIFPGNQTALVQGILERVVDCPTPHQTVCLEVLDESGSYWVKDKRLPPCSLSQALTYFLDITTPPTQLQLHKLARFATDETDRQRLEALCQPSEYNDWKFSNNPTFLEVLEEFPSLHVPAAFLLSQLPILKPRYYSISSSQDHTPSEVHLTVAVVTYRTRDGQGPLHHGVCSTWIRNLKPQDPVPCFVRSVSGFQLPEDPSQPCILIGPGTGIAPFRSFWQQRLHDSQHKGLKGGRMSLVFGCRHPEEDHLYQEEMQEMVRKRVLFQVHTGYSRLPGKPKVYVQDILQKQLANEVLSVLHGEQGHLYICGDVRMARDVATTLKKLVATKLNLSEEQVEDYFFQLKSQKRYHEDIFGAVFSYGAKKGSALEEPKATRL

[6] = biological target: Sodium-dependent noradrenaline transporter (Homo sapiens, UniProt P23975); assay: DRUGMATRIX: Norepinephrine Transporter radioligand binding (ligand: [125I] RTI-55); type: cell membranes, MDCK, Membrane; conditions: mdck; Not Active = under 50% inhibition at 10 µM
[7] = DRUGMATRIX: ATPase, Na+/K+ enzyme inhibition (substrate: ATP); type: tissue-based, Sus scrofa, Heart; conditions: Not Active = under 50% inhibition at 10 µM

Chain of C-C chemokine receptor type 2 (P41597 whole entry): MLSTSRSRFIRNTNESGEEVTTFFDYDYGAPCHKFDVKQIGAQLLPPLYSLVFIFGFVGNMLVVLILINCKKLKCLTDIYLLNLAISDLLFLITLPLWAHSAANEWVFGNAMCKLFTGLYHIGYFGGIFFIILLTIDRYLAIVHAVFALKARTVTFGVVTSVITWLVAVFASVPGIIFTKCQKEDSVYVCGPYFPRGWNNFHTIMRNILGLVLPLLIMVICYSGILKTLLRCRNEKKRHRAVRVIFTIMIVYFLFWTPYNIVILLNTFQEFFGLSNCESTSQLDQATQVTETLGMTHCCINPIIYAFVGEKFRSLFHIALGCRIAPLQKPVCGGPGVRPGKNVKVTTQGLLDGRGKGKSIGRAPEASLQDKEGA
Chain of Sodium-dependent noradrenaline transporter (P23975 whole entry): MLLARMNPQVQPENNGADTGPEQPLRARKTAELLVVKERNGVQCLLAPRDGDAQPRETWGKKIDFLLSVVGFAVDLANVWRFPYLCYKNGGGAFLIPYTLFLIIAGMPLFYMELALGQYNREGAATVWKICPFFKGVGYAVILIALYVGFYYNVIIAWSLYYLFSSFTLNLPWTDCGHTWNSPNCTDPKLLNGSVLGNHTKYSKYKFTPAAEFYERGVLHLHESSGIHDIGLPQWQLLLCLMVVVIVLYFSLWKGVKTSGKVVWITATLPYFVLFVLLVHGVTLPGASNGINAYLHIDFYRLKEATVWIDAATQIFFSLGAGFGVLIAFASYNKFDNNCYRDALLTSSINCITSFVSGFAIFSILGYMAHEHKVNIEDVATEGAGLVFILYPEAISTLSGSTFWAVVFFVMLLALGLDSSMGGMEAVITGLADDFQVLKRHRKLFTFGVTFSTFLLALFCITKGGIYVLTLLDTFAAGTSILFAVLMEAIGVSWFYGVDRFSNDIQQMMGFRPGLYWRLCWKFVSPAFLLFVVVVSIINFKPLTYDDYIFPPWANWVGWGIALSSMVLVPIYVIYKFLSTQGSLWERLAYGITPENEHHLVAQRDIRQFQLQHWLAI
Chain of Melanocortin receptor 4 (P32245 whole entry): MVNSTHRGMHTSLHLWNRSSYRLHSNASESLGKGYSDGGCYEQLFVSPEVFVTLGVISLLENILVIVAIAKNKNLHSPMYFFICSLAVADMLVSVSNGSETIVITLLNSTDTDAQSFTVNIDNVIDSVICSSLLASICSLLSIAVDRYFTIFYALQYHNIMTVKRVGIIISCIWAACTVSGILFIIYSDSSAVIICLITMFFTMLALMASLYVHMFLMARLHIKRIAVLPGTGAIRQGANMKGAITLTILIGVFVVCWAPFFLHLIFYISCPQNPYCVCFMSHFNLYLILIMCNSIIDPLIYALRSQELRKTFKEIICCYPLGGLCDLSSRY
Chain of Cytochrome P450 2C9 (P11712 whole entry): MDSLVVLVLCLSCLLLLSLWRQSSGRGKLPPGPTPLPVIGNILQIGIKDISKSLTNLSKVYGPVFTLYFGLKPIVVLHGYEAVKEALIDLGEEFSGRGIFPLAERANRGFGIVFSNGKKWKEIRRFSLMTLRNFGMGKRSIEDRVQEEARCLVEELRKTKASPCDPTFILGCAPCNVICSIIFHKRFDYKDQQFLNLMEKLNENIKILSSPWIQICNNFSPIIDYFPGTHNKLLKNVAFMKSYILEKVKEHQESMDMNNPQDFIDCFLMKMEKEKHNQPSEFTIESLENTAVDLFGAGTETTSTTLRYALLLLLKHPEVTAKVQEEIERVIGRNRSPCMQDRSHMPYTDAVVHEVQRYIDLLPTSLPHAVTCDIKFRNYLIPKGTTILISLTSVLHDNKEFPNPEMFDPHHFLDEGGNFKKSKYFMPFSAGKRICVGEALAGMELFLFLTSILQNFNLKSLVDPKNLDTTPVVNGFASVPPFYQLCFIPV
Chain of Beta-3 adrenergic receptor (P13945 whole entry): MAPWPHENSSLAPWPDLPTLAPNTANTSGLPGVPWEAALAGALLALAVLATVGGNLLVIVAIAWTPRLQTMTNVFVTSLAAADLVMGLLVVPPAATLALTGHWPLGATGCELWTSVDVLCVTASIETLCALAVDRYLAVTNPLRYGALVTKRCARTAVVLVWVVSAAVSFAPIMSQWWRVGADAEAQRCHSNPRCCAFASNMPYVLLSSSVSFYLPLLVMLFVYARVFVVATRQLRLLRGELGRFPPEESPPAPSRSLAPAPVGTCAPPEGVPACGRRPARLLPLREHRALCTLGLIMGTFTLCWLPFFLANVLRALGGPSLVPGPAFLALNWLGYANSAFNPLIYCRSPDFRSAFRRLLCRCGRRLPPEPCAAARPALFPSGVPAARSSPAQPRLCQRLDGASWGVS

CCN(CC)CCNC(=O)c1cc(S(C)(=O)=O)ccc1OC [TIAPRIDE]
Not Active: IC50 [1] | IC50 [2] | IC50 [3] | IC50 [4] | Ki [4] | IC50 [5] | IC50 [6] | IC50 [7] | Ki [7]

Clc1ccccc1CN1CCc2sccc2C1 [TICLOPIDINE]
Not Active: IC50 [1] | IC50 [2] | IC50 [3] | IC50 [4] | Ki [4] | IC50 [5] | IC50 [6] | IC50 [7] | Ki [7]

NC1CCN(c2nc3c(cc2F)c(=O)c(C(=O)O)cn3-c2ccc(F)cc2F)C1 (stereo not given) [TOSUFLOXACIN]
Not Active: IC50 [1] | IC50 [2] | IC50 [3] | IC50 [4] | Ki [4] | IC50 [5] | IC50 [6] | IC50 [7] | Ki [7]

CC(c1cc2ccccc2s1)N(O)C(N)=O (stereo not given) [ZILEUTON]
Not Active: IC50 [1] | IC50 [2] | IC50 [3] | IC50 [4] | Ki [4] | IC50 [5] | IC50 [6] | IC50 [7] | Ki [7]

MANGANESE CHLORIDE ANHYDROUS
Not Active: IC50 [1] | Ki [1] | IC50 [2] | Ki [2] | IC50 [3] | Ki [3] | IC50 [4] | Ki [4] | IC50 [5] | Ki [5] | IC50 [6] | Ki [6] | IC50 [7] | Ki [7]
